{
  "source": "patent US11578056B2",
  "about": "“Solid forms comprising (S)-2-(2,6-dioxopiperidin-3-yl)-4-((2-fluoro-4-((3-morpholinoazetidin-1-yl)methyl)benzyl)amino)isoindoline-1,3-dione and salts thereof, and compositions comprising and methods of using the same” (Celgene Corporation, priority 2019, dated 2023)",
  "test_in_all_cases": "Hematological cell line viability/apoptosis flow cytometry assay",
  "assay_type_in_all_cases": "cell-based",
  "key": {"TMD8 cell line": {"system": "TMD8 cell line", "conditions": "TMD8 (DLBCL ABC); 120 h", "protocol": "(§1) Cell Proliferation and Viability Assay Using Hematological Cell Lines: The following exemplary anti-proliferative assay uses exemplary hematological cell lines in the following. The in vitro growth inhibitory activity of Compound 1 described herein was evaluated using a 384-well flow cytometry assay.\n(§2) The cell lines were plated in 384-well flat bottom plates and assessed with increasing concentrations of compound ranging from 0.00015 to 10 μM or dimethyl sulfoxide (DMSO) control. The final concentration of DMSO was 0.1% (v/v). Following the addition of Compound 1 or DMSO and incubation for 120 hours, cell number and cell death were analyzed by flow cytometry (Attune®, Thermo Fisher) using Annexin V and the live-cell impermeant DNA dye, DRAQ7. Phosphatidylserine translocates from the inner layer to the outer layer of the cell membrane early in apoptosis and Annexin V binds to the exposed phosphatidylserine found on the surface of an apoptotic cell. The vital dye DRAQ7 is excluded by intact live cells and only stains cells that have died as a result of apoptosis or necrosis.\n(§3) Flow cytometry data analysis was then performed using the Flow Jo_v10 software to determine the number of viable cells (Annexin V and DRAQ7 double negative staining cells) and percentage of apoptotic cells (Annexin V positive cells) for each condition. The live cell count for every concentration was normalized to the DMSO control (considered as 100%) to calculate the percentage of viable cells remaining after treatment and graphed using GraphPad Prism 7.03. The IC50 (50% inhibitory concentration) and Emax (maximum efficacy achieved) values were then calculated by performing nonlinear regression curve fitting using log(inhibitor) vs. normalized response—variable slope analysis on GraphPad Prism 7.03. Area under the curve (AUC) was calculated by performing area under curve analysis on GraphPad Prism 7.03. Similarly, for apoptosis analysis, the percentage of apoptosis combining both “early” (Annexin V positive and DRAQ7 negative) and “late” apoptosis (Annexin V and DRAQ7 positive) cell gates relative to DMSO was graphed using GraphPad Prism 7.03. The AUC, EC50 (concentration of compound that produces half-maximal apoptosis response) and Ymax (maximal percentage of apoptosis achieved) values from apoptosis curves were calculated by performing area under curve analysis and nonlinear regression curve fitting using log(agonist) vs. normalized response—Variable slope analysis on GraphPad Prism 7.03.\n(§4) Dose-response proliferation curves for the panel of hematological cell lines and non-linear curve-fit regression were used to determine IC50, AUC, and Emax for % viable cells (Emax for viability varies between 100 at low doses and 0 at high doses, which corresponds to inhibition of all viable cells), and dose-response apoptosis curves were used to determine the EC50, AUC, and Ymax for % apoptosis (Ymax for apoptosis varies from 0 at low doses and 100 at higher doses which corresponds to death of all cells). Tumor cells were exposed to serial dilutions (0.00015 to 10 μM) of Compound 1 or dimethyl sulfoxide (DMSO) control for 5 days. Viability and apoptosis for all cell lines was determined by Annexin V/7-aminoactinomycin D (7-AAD) flow cytometry."}, "Pfeiffer cell line": {"system": "Pfeiffer cell line", "conditions": "Pfeiffer (DLBCL GCB); 120 h", "protocol": "as §1, §2, §3, §4"}, "PGA1 cell line": {"system": "PGA1 cell line", "conditions": "PGA1 (CLL), 120 h", "protocol": "as §1, §2, §3, §4"}, "OCI-LY1 cell line": {"system": "OCI-LY1 cell line", "conditions": "OCI-LY1 (DLBCL GCB); 120 h", "protocol": "as §1, §2, §3, §4"}, "GDM-1 cell line": {"system": "GDM-1 cell line", "conditions": "GDM-1 (AML); 120 h", "protocol": "as §1, §2, §3, §4"}, "CARNAVAL cell line": {"system": "CARNAVAL cell line", "conditions": "CARNAVAL (DLBCL), 120 h", "protocol": "as §1, §2, §3, §4"}, "SU-DHL-1 cell line": {"system": "SU-DHL-1 cell line", "conditions": "SU-DHL-1 (DLBCL); 120 h", "protocol": "as §1, §2, §3, §4"}, "HNT-34 cell line": {"system": "HNT-34 cell line", "conditions": "HNT-34 (AML), 120 h", "protocol": "as §1, §2, §3, §4"}, "I83-E95 cell line": {"system": "I83-E95 cell line", "conditions": "I83-E95 (CLL), 120 h", "protocol": "as §1, §2, §3, §4"}, "OCI-LY19 cell line": {"system": "OCI-LY19 cell line", "conditions": "OCI-LY19 (DLBCL GCB); 120 h", "protocol": "as §1, §2, §3, §4"}, "Mino cell line": {"system": "Mino cell line", "conditions": "Mino (MCL); 120 h", "protocol": "as §1, §2, §3, §4"}, "CII cell line": {"system": "CII cell line", "conditions": "CII (CLL), 120 h", "protocol": "as §1, §2, §3, §4"}, "Rec-1 cell line": {"system": "Rec-1 cell line", "conditions": "Rec-1 (MCL); 120 h", "protocol": "as §1, §2, §3, §4"}, "Karpas-299 cell line": {"system": "Karpas-299 cell line", "conditions": "Karpas-299 (TCL), 120 h", "protocol": "as §1, §2, §3, §4"}},
  "data": [
    {"smiles": "O=C1CC[C@H](N2C(=O)c3cccc(NCc4ccc(CN5CC(N6CCOCC6)C5)cc4F)c3C2=O)C(=O)N1", "note": "[Compound 1, (S)-2-(2,6-dioxopiperidin-3-yl)-4-((2-fluoro-4-((3-morpholinoazetidin-1-yl)methyl)benzyl)amino)isoindoline-1,3-dione]", "values": [
      {"measurement": "% Viable Cells AUC", "setting": "TMD8 cell line", "result": 4.187},
      {"measurement": "% Viable Cells Emax", "setting": "TMD8 cell line", "result": 0.245, "unit": "%"},
      {"measurement": "Apoptosis AUC", "setting": "TMD8 cell line", "result": 963.3},
      {"measurement": "Apoptosis Ymax", "setting": "TMD8 cell line", "result": 97.2, "unit": "%"},
      {"measurement": "% Viable Cells AUC", "setting": "Pfeiffer cell line", "result": 313.5},
      {"measurement": "% Viable Cells Emax", "setting": "Pfeiffer cell line", "result": 24.49, "unit": "%"},
      {"measurement": "Apoptosis AUC", "setting": "Pfeiffer cell line", "result": 493.3},
      {"measurement": "Apoptosis Ymax", "setting": "Pfeiffer cell line", "result": 51.82, "unit": "%"},
      {"measurement": "% Viable Cells AUC", "setting": "PGA1 cell line", "result": 736.7},
      {"measurement": "% Viable Cells Emax", "setting": "PGA1 cell line", "result": 69.21, "unit": "%"},
      {"measurement": "Apoptosis AUC", "setting": "PGA1 cell line", "result": 48.94},
      {"measurement": "Apoptosis Ymax", "setting": "PGA1 cell line", "result": 5.075, "unit": "%"},
      {"measurement": "EC50", "setting": "PGA1 cell line", "result": 122, "unit": "nM"},
      {"measurement": "IC50", "setting": "PGA1 cell line; read-out: % Viable Cells IC50", "result": "> 10000", "unit": "nM"},
      {"measurement": "% Viable Cells AUC", "setting": "OCI-LY1 cell line", "result": 22.77},
      {"measurement": "% Viable Cells Emax", "setting": "OCI-LY1 cell line", "result": 1.037, "unit": "%"},
      {"measurement": "Apoptosis AUC", "setting": "OCI-LY1 cell line", "result": 852.3},
      {"measurement": "Apoptosis Ymax", "setting": "OCI-LY1 cell line", "result": 90.09, "unit": "%"},
      {"measurement": "% Viable Cells AUC", "setting": "GDM-1 cell line", "result": 1455},
      {"measurement": "% Viable Cells Emax", "setting": "GDM-1 cell line", "result": 388.4, "unit": "%"},
      {"measurement": "Apoptosis AUC", "setting": "GDM-1 cell line", "result": 696.9},
      {"measurement": "Apoptosis Ymax", "setting": "GDM-1 cell line", "result": 265, "unit": "%"},
      {"measurement": "% Viable Cells AUC", "setting": "CARNAVAL cell line", "result": 110.6},
      {"measurement": "% Viable Cells Emax", "setting": "CARNAVAL cell line", "result": 7.134, "unit": "%"},
      {"measurement": "Apoptosis AUC", "setting": "CARNAVAL cell line", "result": 708.7},
      {"measurement": "Apoptosis Ymax", "setting": "CARNAVAL cell line", "result": 77.84, "unit": "%"},
      {"measurement": "EC50", "setting": "CARNAVAL cell line", "result": 152, "unit": "nM"},
      {"measurement": "IC50", "setting": "CARNAVAL cell line; read-out: % Viable Cells IC50", "result": 9.12, "unit": "nM"},
      {"measurement": "% Viable Cells AUC", "setting": "SU-DHL-1 cell line", "result": 31.14},
      {"measurement": "% Viable Cells Emax", "setting": "SU-DHL-1 cell line", "result": 2.485, "unit": "%"},
      {"measurement": "Apoptosis AUC", "setting": "SU-DHL-1 cell line", "result": 690.1},
      {"measurement": "Apoptosis Ymax", "setting": "SU-DHL-1 cell line", "result": 73.83, "unit": "%"},
      {"measurement": "% Viable Cells AUC", "setting": "HNT-34 cell line", "result": 353},
      {"measurement": "% Viable Cells Emax", "setting": "HNT-34 cell line", "result": 20.47, "unit": "%"},
      {"measurement": "Apoptosis AUC", "setting": "HNT-34 cell line", "result": 130.1},
      {"measurement": "Apoptosis Ymax", "setting": "HNT-34 cell line", "result": 44.33, "unit": "%"},
      {"measurement": "EC50", "setting": "HNT-34 cell line", "result": 876, "unit": "nM"},
      {"measurement": "IC50", "setting": "HNT-34 cell line; read-out: % Viable Cells IC50", "result": 26, "unit": "nM"},
      {"measurement": "% Viable Cells AUC", "setting": "I83-E95 cell line", "result": 259.2},
      {"measurement": "% Viable Cells Emax", "setting": "I83-E95 cell line", "result": 21.6, "unit": "%"},
      {"measurement": "Apoptosis AUC", "setting": "I83-E95 cell line", "result": 358.4},
      {"measurement": "Apoptosis Ymax", "setting": "I83-E95 cell line", "result": 40.69, "unit": "%"},
      {"measurement": "EC50", "setting": "I83-E95 cell line", "result": 61.1, "unit": "nM"},
      {"measurement": "IC50", "setting": "I83-E95 cell line; read-out: % Viable Cells IC50", "result": 17.3, "unit": "nM"},
      {"measurement": "% Viable Cells AUC", "setting": "OCI-LY19 cell line", "result": 72.49},
      {"measurement": "% Viable Cells Emax", "setting": "OCI-LY19 cell line", "result": 3.228, "unit": "%"},
      {"measurement": "Apoptosis AUC", "setting": "OCI-LY19 cell line", "result": 706.2},
      {"measurement": "Apoptosis Ymax", "setting": "OCI-LY19 cell line", "result": 80.91, "unit": "%"},
      {"measurement": "% Viable Cells AUC", "setting": "Mino cell line", "result": 62.67},
      {"measurement": "% Viable Cells Emax", "setting": "Mino cell line", "result": 5.638, "unit": "%"},
      {"measurement": "Apoptosis AUC", "setting": "Mino cell line", "result": 968.2},
      {"measurement": "Apoptosis Ymax", "setting": "Mino cell line", "result": 97.04, "unit": "%"},
      {"measurement": "% Viable Cells AUC", "setting": "CII cell line", "result": 926.1},
      {"measurement": "% Viable Cells Emax", "setting": "CII cell line", "result": 78.23, "unit": "%"},
      {"measurement": "Apoptosis AUC", "setting": "CII cell line", "result": 238.1},
      {"measurement": "Apoptosis Ymax", "setting": "CII cell line", "result": 26.11, "unit": "%"},
      {"measurement": "EC50", "setting": "CII cell line", "result": 145, "unit": "nM"},
      {"measurement": "IC50", "setting": "CII cell line; read-out: % Viable Cells IC50", "result": "> 10000", "unit": "nM"},
      {"measurement": "% Viable Cells AUC", "setting": "Rec-1 cell line", "result": 281.8},
      {"measurement": "% Viable Cells Emax", "setting": "Rec-1 cell line", "result": 21.04, "unit": "%"},
      {"measurement": "Apoptosis AUC", "setting": "Rec-1 cell line", "result": 508.5},
      {"measurement": "Apoptosis Ymax", "setting": "Rec-1 cell line", "result": 57.27, "unit": "%"},
      {"measurement": "EC50", "setting": "Karpas-299 cell line; Homo sapiens", "result": 168000, "unit": "nM"},
      {"measurement": "IC50", "setting": "Karpas-299 cell line; Homo sapiens, read-out: % Viable Cells IC50", "result": 12, "unit": "nM"},
      {"measurement": "% Viable Cells AUC", "setting": "Karpas-299 cell line", "result": 283.7},
      {"measurement": "% Viable Cells Emax", "setting": "Karpas-299 cell line", "result": 8.43, "unit": "%"},
      {"measurement": "Apoptosis AUC", "setting": "Karpas-299 cell line", "result": 14.51},
      {"measurement": "Apoptosis Ymax", "setting": "Karpas-299 cell line", "result": 8.0, "unit": "%"}
    ]}
  ]
}
